Test system: 883617-216-R-J1-PDC tumor spheroids, viability
Experiment: Anticancer human tumor 883617-216-R-J1-PDC patient-derived bladder carcinoma cell line growth inhibition [PI3K]
Details: spheroids with HUVEC and MSC; for IC50: curve of first compound; for viability, T/C: stronger effect = lower value
How it was run: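 Tumor cells were combined with HUVEC and MSCs into spheroids, then dosed with PI3K-inhibitor combinations over half-log ranges capped near clinical Cmax or 10 microM.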

[1] = second compound 0.0316 µM, first compound 0.000316 µM
[2] = second compound 0.0316 µM, first compound 0.001 µM
[3] = second compound 0.0316 µM, first compound 0.00316 µM
[4] = second compound 0.0316 µM, first compound 0.01 µM
[5] = second compound 0.0316 µM, first compound 0.0316 µM
[6] = second compound 0.0316 µM, first compound 0.1 µM
[7] = second compound 0.1 µM, first compound 0.000316 µM
[8] = second compound 0.1 µM, first compound 0.001 µM
[9] = second compound 0.1 µM, first compound 0.00316 µM
[10] = second compound 0.1 µM, first compound 0.01 µM
[11] = second compound 0.1 µM, first compound 0.0316 µM
[12] = second compound 0.1 µM, first compound 0.1 µM
[13] = second compound 0.316 µM, first compound 0.000316 µM
[14] = second compound 0.316 µM, first compound 0.001 µM
[15] = second compound 0.316 µM, first compound 0.00316 µM
[16] = second compound 0.316 µM, first compound 0.01 µM
[17] = second compound 0.316 µM, first compound 0.0316 µM
[18] = second compound 0.316 µM, first compound 0.1 µM
[19] = second compound 1 µM, first compound 0.000316 µM
[20] = second compound 1 µM, first compound 0.001 µM
[21] = second compound 1 µM, first compound 0.00316 µM
[22] = second compound 1 µM, first compound 0.01 µM
[23] = second compound 1 µM, first compound 0.0316 µM
[24] = second compound 1 µM, first compound 0.1 µM
[25] = second compound 3.16 µM, first compound 0.000316 µM
[26] = second compound 3.16 µM, first compound 0.001 µM
[27] = second compound 3.16 µM, first compound 0.00316 µM
[28] = second compound 3.16 µM, first compound 0.01 µM
[29] = second compound 3.16 µM, first compound 0.0316 µM
[30] = second compound 3.16 µM, first compound 0.1 µM
[31] = second compound 10 µM, first compound 0.000316 µM
[32] = second compound 10 µM, first compound 0.001 µM
[33] = second compound 10 µM, first compound 0.00316 µM
[34] = second compound 10 µM, first compound 0.01 µM
[35] = second compound 10 µM, first compound 0.0316 µM
[36] = second compound 10 µM, first compound 0.1 µM
[37] = second compound 0.0316 µM, first compound 0.316 µM
[38] = second compound 0.0316 µM, first compound 1 µM
[39] = second compound 0.0316 µM, first compound 3.16 µM
[40] = second compound 0.0316 µM, first compound 10 µM
[41] = second compound 0.1 µM, first compound 0.316 µM
[42] = second compound 0.1 µM, first compound 1 µM
[43] = second compound 0.1 µM, first compound 3.16 µM
[44] = second compound 0.1 µM, first compound 10 µM
[45] = second compound 0.316 µM, first compound 0.316 µM
[46] = second compound 0.316 µM, first compound 1 µM
[47] = second compound 0.316 µM, first compound 3.16 µM
[48] = second compound 0.316 µM, first compound 10 µM
[49] = second compound 1 µM, first compound 0.316 µM
[50] = second compound 1 µM, first compound 1 µM
[51] = second compound 1 µM, first compound 3.16 µM
[52] = second compound 1 µM, first compound 10 µM
[53] = second compound 3.16 µM, first compound 0.316 µM
[54] = second compound 3.16 µM, first compound 1 µM
[55] = second compound 3.16 µM, first compound 3.16 µM
[56] = second compound 3.16 µM, first compound 10 µM
[57] = second compound 10 µM, first compound 0.316 µM
[58] = second compound 10 µM, first compound 1 µM
[59] = second compound 10 µM, first compound 3.16 µM
[60] = second compound 10 µM, first compound 10 µM
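Further: spheroids exposed to agents for 7 days before the viability read.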

In the case of `CC(=O)c1c(C)c2cnc(Nc3ccc(N4CCNCC4)cn3)nc2n(C2CCCC2)c1=O` + Cc1nc(NC(=O)N2CCCC2C(N)=O)sc1-c1ccnc(C(C)(C)C(F)(F)F)c1, the IC50 (second compound 0.0316 µM) is reported as greater than 100 nM, the IC50 (second compound 0.1 µM) is reported as 23.7 nM and the IC50 (second compound 0.316 µM) is reported as less than 0.316 nM. For the same molecule, the IC50 (second compound 1 µM) was less than 0.316 nM, the IC50 (second compound 3.16 µM) was less than 0.316 nM and the IC50 (second compound 10 µM) was less than 0.316 nM. For the same molecule, the viability, T/C [1] was 81%, the viability, T/C [2] was 70.3% and the viability, T/C [3] was 82.5%. The viability, T/C [4] was 68.1%, the viability, T/C [5] was 58.7% and the viability, T/C [6] was 50.3%. The viability, T/C [7] was 65.4%, the viability, T/C [8] was 63.5% and the viability, T/C [9] was 62.8%. For the same molecule, the viability, T/C [10] was 57.8%, the viability, T/C [11] was 47.4% and the viability, T/C [12] was 37.6%. It also gave a viability, T/C [13] of 47.7%, a viability, T/C [14] of 43.8% and a viability, T/C [15] of 33%. It also gave a viability, T/C [16] of 43.2%, a viability, T/C [17] of 34.5% and a viability, T/C [18] of 26.3%. It also gave a viability, T/C [19] of 26.7%, a viability, T/C [20] of 31.5% and a viability, T/C [21] of 25.7%. For the same molecule, the viability, T/C [22] was 23.3%, the viability, T/C [23] was 21.1% and the viability, T/C [24] was 17.2%. The viability, T/C [25] was 12.9%, the viability, T/C [26] was 11.8% and the viability, T/C [27] was 13.6%. For the same molecule, the viability, T/C [28] was 14.4%, the viability, T/C [29] was 11.7% and the viability, T/C [30] was 11.6%. The viability, T/C [31] was 8.2%, the viability, T/C [32] was 6.55% and the viability, T/C [33] was 6.27%. It also gave a viability, T/C [34] of 7.44%, a viability, T/C [35] of 6.18% and a viability, T/C [36] of 5.86%.
Work on `CC(C)n1nc(-c2ccc3oc(N)nc3c2)c2c(N)ncnc21` + Cc1nc(NC(=O)N2CCCC2C(N)=O)sc1-c1ccnc(C(C)(C)C(F)(F)F)c1 yielded an IC50 (second compound 0.0316 µM) of 18.3 nM, an IC50 (second compound 0.1 µM) of 12.6 nM and an IC50 (second compound 0.316 µM) of 0.358 nM. The IC50 (second compound 1 µM) was less than 0.316 nM, the IC50 (second compound 3.16 µM) was less than 0.316 nM and the IC50 (second compound 10 µM) was less than 0.316 nM. It also gave a viability, T/C [1] of 79.6%, a viability, T/C [2] of 72.5% and a viability, T/C [3] of 69.5%. It also gave a viability, T/C [4] of 60.3%, a viability, T/C [5] of 41.1% and a viability, T/C [6] of 18.4%. It also gave a viability, T/C [7] of 61.9%, a viability, T/C [8] of 66.6% and a viability, T/C [9] of 62.1%. The viability, T/C [10] was 52.9%, the viability, T/C [11] was 35.5% and the viability, T/C [12] was 15.7%. For the same molecule, the viability, T/C [13] was 47.2%, the viability, T/C [14] was 54% and the viability, T/C [15] was 45.2%. It also gave a viability, T/C [16] of 40.6%, a viability, T/C [17] of 25.9% and a viability, T/C [18] of 12.7%. The viability, T/C [19] was 29.1%, the viability, T/C [20] was 24.7% and the viability, T/C [21] was 38.1%. It also gave a viability, T/C [22] of 22.4%, a viability, T/C [23] of 16.4% and a viability, T/C [24] of 9.37%. It also gave a viability, T/C [25] of 16%, a viability, T/C [26] of 15.7% and a viability, T/C [27] of 12.4%. For the same molecule, the viability, T/C [28] was 17.6%, the viability, T/C [29] was 9.92% and the viability, T/C [30] was 4.95%. It also gave a viability, T/C [31] of 7.13%, a viability, T/C [32] of 7.02% and a viability, T/C [33] of 8.33%. The viability, T/C [34] was 6.52%, the viability, T/C [35] was 5.75% and the viability, T/C [36] was 2.9%.
In the case of `CCCS(=O)(=O)Nc1ccc(F)c(C(=O)c2c[nH]c3ncc(-c4ccc(Cl)cc4)cc23)c1F` + Cc1nc(NC(=O)N2CCCC2C(N)=O)sc1-c1ccnc(C(C)(C)C(F)(F)F)c1, the IC50 (second compound 0.0316 µM) is reported as 4360 nM, the IC50 (second compound 0.1 µM) is reported as 4380 nM and the IC50 (second compound 0.316 µM) is reported as 858 nM. It also gave an IC50 (second compound 1 µM) of less than 31.6 nM, an IC50 (second compound 3.16 µM) of less than 31.6 nM and an IC50 (second compound 10 µM) of less than 31.6 nM. For the same molecule, the viability, T/C [5] was 75.6%, the viability, T/C [6] was 83.1% and the viability, T/C [37] was 88.1%. For the same molecule, the viability, T/C [38] was 92.9%, the viability, T/C [39] was 66.4% and the viability, T/C [40] was 7.45%. For the same molecule, the viability, T/C [11] was 84.8%, the viability, T/C [12] was 78.3% and the viability, T/C [41] was 65%. It also gave a viability, T/C [42] of 74%, a viability, T/C [43] of 66% and a viability, T/C [44] of 9.98%. For the same molecule, the viability, T/C [17] was 53.6%, the viability, T/C [18] was 55.1% and the viability, T/C [45] was 51.4%. It also gave a viability, T/C [46] of 49.2%, a viability, T/C [47] of 39.8% and a viability, T/C [48] of 10.4%. The viability, T/C [23] was 33.3%, the viability, T/C [24] was 26.5% and the viability, T/C [49] was 34.3%. For the same molecule, the viability, T/C [50] was 39.8%, the viability, T/C [51] was 35.9% and the viability, T/C [52] was 7.76%. For the same molecule, the viability, T/C [29] was 16.6%, the viability, T/C [30] was 16.3% and the viability, T/C [53] was 17.8%. For the same molecule, the viability, T/C [54] was 19.3%, the viability, T/C [55] was 16.6% and the viability, T/C [56] was 7.14%. The viability, T/C [35] was 7.33%, the viability, T/C [36] was 7.82% and the viability, T/C [57] was 7.92%. It also gave a viability, T/C [58] of 10%, a viability, T/C [59] of 9.86% and a viability, T/C [60] of 4.55%.
`CNC(=O)c1ccc(N2C(=S)N(c3ccc(C#N)c(C(F)(F)F)c3)C(=O)C2(C)C)cc1F` + Cc1nc(NC(=O)N2CCCC2C(N)=O)sc1-c1ccnc(C(C)(C)C(F)(F)F)c1 showed an IC50 (second compound 0.0316 µM) greater than 10000 nM, an IC50 (second compound 0.1 µM) greater than 10000 nM and an IC50 (second compound 0.316 µM) of less than 31.6 nM. For the same molecule, the IC50 (second compound 1 µM) was less than 31.6 nM, the IC50 (second compound 3.16 µM) was less than 31.6 nM and the IC50 (second compound 10 µM) was less than 31.6 nM. The viability, T/C [5] was 94.3%, the viability, T/C [6] was 75.6% and the viability, T/C [37] was 86.2%. For the same molecule, the viability, T/C [38] was 82.5%, the viability, T/C [39] was 87.8% and the viability, T/C [40] was 63.4%. The viability, T/C [11] was 74%, the viability, T/C [12] was 67.2% and the viability, T/C [41] was 81.8%. For the same molecule, the viability, T/C [42] was 74.7%, the viability, T/C [43] was 63.6% and the viability, T/C [44] was 73.7%. For the same molecule, the viability, T/C [17] was 48.6%, the viability, T/C [18] was 49.1% and the viability, T/C [45] was 46.7%. For the same molecule, the viability, T/C [46] was 45.7%, the viability, T/C [47] was 53.6% and the viability, T/C [48] was 45.6%. It also gave a viability, T/C [23] of 31%, a viability, T/C [24] of 27.3% and a viability, T/C [49] of 33.1%. The viability, T/C [50] was 32.4%, the viability, T/C [51] was 25.9% and the viability, T/C [52] was 31.7%. It also gave a viability, T/C [29] of 15.9%, a viability, T/C [30] of 15.3% and a viability, T/C [53] of 17.6%. The viability, T/C [54] was 16.6%, the viability, T/C [55] was 15.7% and the viability, T/C [56] was 14.3%. For the same molecule, the viability, T/C [35] was 8.45%, the viability, T/C [36] was 7.75% and the viability, T/C [57] was 8.14%. For the same molecule, the viability, T/C [58] was 7.47%, the viability, T/C [59] was 8.35% and the viability, T/C [60] was 6.73%.

Reference: PubChem BioAssay AID1963973 (Molecular Pharmacology Branch, DTP, NCI, 2024)
